For data set [1], the system named is Escherichia coli. The data set is described as follows: Antimicrobial activity against Escherichia coli after 18 to 24 hrs. It counts as functional.
Data set [2] concerns Escherichia coli. The data set is described as follows: Antimicrobial activity against Escherichia coli at 20 uL after 18 to 24 hrs by disk diffusion method. It counts as functional. For orientation: In agar diffusion tests the substance spreads into inoculated agar from a disc or well.
The test system of data set [3] is Bacillus subtilis. The data set is described as follows: Antimicrobial activity against Bacillus subtilis after 18 to 24 hrs. The format is functional.
Data set [4] relates to Bacillus subtilis. The experiment in a line: Antimicrobial activity against Bacillus subtilis at 20 uL after 18 to 24 hrs by disk diffusion method. It counts as functional.
The subject of data set [5] is Staphylococcus aureus. The data set is described as follows: Antimicrobial activity against Staphylococcus aureus after 18 to 24 hrs. The format is functional.
The subject of data set [6] is Staphylococcus aureus. The data set is described as follows: Antimicrobial activity against Staphylococcus aureus at 20 uL after 18 to 24 hrs by disk diffusion method. The format is functional.
For data set [7], the system named is Candida albicans. The data set is described as follows: Antimicrobial activity against Candida albicans after 18 to 24 hrs. It counts as functional.
Data set [8] has as its system Artemia salina. The data set is described as follows: Toxicity in Artemia salina assessed as mortality at 100 ppm after 24 hrs. The following applies: in vivo. The format is organism-based.
Data set [9] relates to Artemia salina. The data set is described as follows: Toxicity in Artemia salina assessed as mortality at 250 ppm after 24 hrs. It counts as organism-based. The following applies: in vivo.
Data set [10] has as its system Artemia salina. The experiment in a line: Toxicity in Artemia salina assessed as mortality at 500 ppm after 24 hrs. It counts as organism-based. The following applies: in vivo.
Data set [11] concerns Artemia salina. The data set is described as follows: Toxicity in Artemia salina assessed as mortality at 1000 ppm after 24 hrs. It counts as organism-based. The following applies: in vivo.
The subject of data set [12] is Artemia salina. The data set is described as follows: Toxicity in Artemia salina after 24 hrs. It counts as organism-based. The following applies: in vivo.
Data set [13] has as its system Candida albicans. The data set is described as follows: Antimicrobial activity against Candida albicans after 18 to 24 hrs at 20 uL by disk diffusion assay. It counts as functional.

In brackets after ≈: the same amount, converted by molar mass.

One may read the MIC as the least concentration at which growth counts as inhibited. High values mean weaker potency, low ones greater potency. For orientation: LC50 means the concentration lethal to half of the exposed cells or organisms. For `CCCCOC(=O)[C@H](COC(C)=O)NC(=O)c1cccnc1O`, the MIC in [1] was 250 µg/mL (≈ 771 µM); in data set [3], 250 µg/mL (≈ 771 µM); in data set [5] it was 250 µg/mL (≈ 771 µM); in [7], 500 µg/mL (≈ 1540 µM). Besides, the “diameter of the inhibition zone (DIZ)” value in data set [2] turned out to be 7 mm; in [4], 7 mm; in data set [6] it was 7.5 mm; in data set [13], 7.5 mm. Also, the LC50 in [8] was 4.94 ppm; in [9], 9.7 ppm; in data set [10], 39.62 ppm; in [11] it was 58.66 ppm; in data set [12], 811.01 ppm.

For `CCCCCCCC(=O)OC[C@H](NC(=O)c1cccnc1O)C(=O)OCCCC`, the MIC in [1] is 75 µg/mL (≈ 184 µM); in [3], 50 µg/mL (≈ 122 µM); in data set [5] it was 100 µg/mL (≈ 245 µM); in data set [7] it was 250 µg/mL (≈ 612 µM). Further, the “diameter of the inhibition zone (DIZ)” value in [2] turned out to be 7 mm; in [4] it was 7 mm; in data set [6] it was 7 mm; in [13], 7.83 mm. In addition, the LC50 in [8] turned out to be 0 ppm; in data set [9], 0 ppm; in [10], 2.78 ppm; in [11], 11.02 ppm; in data set [12], 3620.41 ppm.

For `CCCCOC(=O)[C@H](COC(=O)CCc1ccccc1)NC(=O)c1cccnc1O`, the MIC in data set [1] was 1000 µg/mL (≈ 2410 µM); in data set [3], 500 µg/mL (≈ 1210 µM); in [5], 1000 µg/mL (≈ 2410 µM); in data set [7], 1000 µg/mL (≈ 2410 µM). In addition, the “diameter of the inhibition zone (DIZ)” value in [2] was 7.83 mm; in data set [4], 7 mm; in data set [6], 7.5 mm; in data set [13], 7.5 mm. In addition, the LC50 is given as 26.67 ppm in data set [8]; 55.58 ppm in data set [9]; 76.67 ppm in data set [10]; 100 ppm in data set [11]; 266.83 ppm in data set [12].

As to `CCCC[C@H]1C(=O)O[C@H](C)[C@H](NC(=O)c2cccc(NC=O)c2O)C(=O)O[C@@H](C)[C@@H]1OC(=O)CC(C)C` [ANTIMYCIN A3], the MIC amounted to 50 µg/mL (≈ 96 µM) in data set [1], 250 µg/mL (≈ 480 µM) in data set [3], 250 µg/mL (≈ 480 µM) in data set [5] and 50 µg/mL (≈ 96 µM) in data set [7]. Besides, the “diameter of the inhibition zone (DIZ)” value in [2] amounted to 7 mm; in data set [4], 8.5 mm; in data set [6], 8 mm; in data set [13], 10 mm.

The values above are taken from ChEMBL document CHEMBL1177833, “Synthesis and biological activity of 2-hydroxynicotinoyl-serine-butyl esters related to antibiotic UK-3A” (Bioorg Med Chem Lett, 2010).
